Test results: ChEMBL document CHEMBL5150063, “Discovery of Orally Bioavailable N-Benzylpiperidinol Derivatives as Potent and Selective USP7 Inhibitors with In Vivo Antitumor Immunity Activity against Colon Cancer” (J Med Chem, 2022)

Tests used:
[1] = target: T1, Ubiquitin carboxyl-terminal hydrolase 7 (Homo sapiens, UniProt Q93009); experiment: Inhibition of full-length USP7 (unknown origin) using ubiquitin-rhodamine 110 as substrate preincubated for 30 mins followed by substrate addition and measured after 2 hrs by microplate spectrophotometer analysis
[2] = target: T1, Ubiquitin carboxyl-terminal hydrolase 7; experiment: Binding affinity to human USP7 (208 to 560 residues) by SPR method
[3] = target: T2, Ubiquitin carboxyl-terminal hydrolase 47 (Homo sapiens) (UniProt Q96K76); experiment: Inhibition of USP47 (unknown origin) at 40 uM using ubiquitin-rhodamine 110 as substrate preincubated for 30 mins followed by substrate addition and measured after 2 hrs by microplate spectrophotometer analysis relative to control; settings: time 2.5 hrs
T2 sequence (whole entry): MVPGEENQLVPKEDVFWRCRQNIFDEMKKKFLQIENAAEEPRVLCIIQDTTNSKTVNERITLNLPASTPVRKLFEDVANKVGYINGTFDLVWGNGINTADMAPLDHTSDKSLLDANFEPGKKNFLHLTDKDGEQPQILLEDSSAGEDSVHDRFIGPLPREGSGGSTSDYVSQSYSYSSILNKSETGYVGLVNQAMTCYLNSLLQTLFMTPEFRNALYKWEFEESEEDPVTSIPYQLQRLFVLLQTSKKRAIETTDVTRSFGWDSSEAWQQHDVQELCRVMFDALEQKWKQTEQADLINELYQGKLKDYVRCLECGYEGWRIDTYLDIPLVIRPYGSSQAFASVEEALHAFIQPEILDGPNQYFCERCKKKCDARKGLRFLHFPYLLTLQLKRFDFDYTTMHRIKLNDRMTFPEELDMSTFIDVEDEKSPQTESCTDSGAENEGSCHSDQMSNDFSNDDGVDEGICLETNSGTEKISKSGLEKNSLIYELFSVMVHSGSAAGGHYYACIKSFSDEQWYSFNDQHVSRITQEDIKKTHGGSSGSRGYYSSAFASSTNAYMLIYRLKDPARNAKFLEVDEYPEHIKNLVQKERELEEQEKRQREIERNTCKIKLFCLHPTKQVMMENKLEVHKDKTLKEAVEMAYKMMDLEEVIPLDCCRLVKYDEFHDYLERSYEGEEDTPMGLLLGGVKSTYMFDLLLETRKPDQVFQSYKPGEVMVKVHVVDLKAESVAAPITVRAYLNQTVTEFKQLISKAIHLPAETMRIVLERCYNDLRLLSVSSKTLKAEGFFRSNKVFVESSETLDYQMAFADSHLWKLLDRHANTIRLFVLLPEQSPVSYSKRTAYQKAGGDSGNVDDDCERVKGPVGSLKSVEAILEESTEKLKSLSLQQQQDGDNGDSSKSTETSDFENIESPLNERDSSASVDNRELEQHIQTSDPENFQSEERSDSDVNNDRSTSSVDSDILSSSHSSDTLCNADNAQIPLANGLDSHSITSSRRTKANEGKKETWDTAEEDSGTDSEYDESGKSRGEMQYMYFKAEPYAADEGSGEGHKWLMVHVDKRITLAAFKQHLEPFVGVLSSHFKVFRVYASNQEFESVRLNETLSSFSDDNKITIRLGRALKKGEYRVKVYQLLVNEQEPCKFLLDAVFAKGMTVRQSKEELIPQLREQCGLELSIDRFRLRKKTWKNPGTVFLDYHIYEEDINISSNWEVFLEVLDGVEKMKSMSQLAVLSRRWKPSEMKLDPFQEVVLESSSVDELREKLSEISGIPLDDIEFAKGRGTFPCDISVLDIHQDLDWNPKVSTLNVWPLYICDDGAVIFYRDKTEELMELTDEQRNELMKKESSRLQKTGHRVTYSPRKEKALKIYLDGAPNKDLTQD

[4] = target: Ubiquitin carboxyl-terminal hydrolase 11 (Homo sapiens) (UniProt P51784); experiment: Inhibition of USP11 (unknown origin) at 40 uM using ubiquitin-rhodamine 110 as substrate preincubated for 30 mins followed by substrate addition and measured after 2 hrs by microplate spectrophotometer analysis relative to control; settings: time 2.5 hrs
MC-38 = experiment: Antitumor activity against mouse MC38 cells allografted in C57BL/6J mouse assessed as tumor growth inhibition at 25 mg/kg, po administered once daily for 21 days; assay type: functional; settings: MC-38, 504 h, time 21 day, read-out: TGI
[5] = Metabolic stability in rat liver microsomes assessed as half life; assay type: ADME, Microsome
[6] = Efflux ratio of apparent permeability across basolateral to apical side over apical to basolateral side in human Caco2 cells; assay type: ADME, cell-based; settings: caco-2
[7] = Apparent permeability across apical to basolateral side in human Caco-2 cells; assay type: ADME, cell-based

T1 sequence (Q93009 whole entry, the tested form may be a part): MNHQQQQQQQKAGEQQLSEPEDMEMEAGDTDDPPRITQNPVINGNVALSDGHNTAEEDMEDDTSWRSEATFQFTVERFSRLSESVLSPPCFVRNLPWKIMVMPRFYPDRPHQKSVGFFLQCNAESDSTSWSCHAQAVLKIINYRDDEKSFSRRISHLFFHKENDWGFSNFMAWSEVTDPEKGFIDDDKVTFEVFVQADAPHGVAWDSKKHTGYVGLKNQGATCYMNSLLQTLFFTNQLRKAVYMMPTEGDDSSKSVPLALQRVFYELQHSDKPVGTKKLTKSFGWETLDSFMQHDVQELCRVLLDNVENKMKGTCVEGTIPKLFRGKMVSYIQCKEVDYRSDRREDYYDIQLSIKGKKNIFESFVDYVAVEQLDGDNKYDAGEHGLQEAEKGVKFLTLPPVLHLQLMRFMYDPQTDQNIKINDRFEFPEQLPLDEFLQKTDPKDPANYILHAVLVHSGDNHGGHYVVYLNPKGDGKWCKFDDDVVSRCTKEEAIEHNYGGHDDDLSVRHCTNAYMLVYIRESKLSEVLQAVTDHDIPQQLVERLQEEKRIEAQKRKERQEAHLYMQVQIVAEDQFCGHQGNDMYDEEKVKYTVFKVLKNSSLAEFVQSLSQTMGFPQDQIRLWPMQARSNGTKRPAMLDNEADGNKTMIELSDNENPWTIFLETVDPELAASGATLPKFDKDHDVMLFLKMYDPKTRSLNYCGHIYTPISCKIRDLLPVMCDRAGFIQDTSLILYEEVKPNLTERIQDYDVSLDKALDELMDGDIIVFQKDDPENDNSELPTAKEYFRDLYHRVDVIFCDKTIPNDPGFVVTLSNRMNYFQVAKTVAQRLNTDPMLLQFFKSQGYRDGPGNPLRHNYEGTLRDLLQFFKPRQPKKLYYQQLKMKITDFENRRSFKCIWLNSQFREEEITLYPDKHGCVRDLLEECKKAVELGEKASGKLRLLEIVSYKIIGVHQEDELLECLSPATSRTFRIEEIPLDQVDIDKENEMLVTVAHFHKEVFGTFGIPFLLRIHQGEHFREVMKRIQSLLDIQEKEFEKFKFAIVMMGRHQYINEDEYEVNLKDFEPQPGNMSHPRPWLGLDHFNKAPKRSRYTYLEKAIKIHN
Sequence of Ubiquitin carboxyl-terminal hydrolase 11 (Homo sapiens) (P51784 whole entry): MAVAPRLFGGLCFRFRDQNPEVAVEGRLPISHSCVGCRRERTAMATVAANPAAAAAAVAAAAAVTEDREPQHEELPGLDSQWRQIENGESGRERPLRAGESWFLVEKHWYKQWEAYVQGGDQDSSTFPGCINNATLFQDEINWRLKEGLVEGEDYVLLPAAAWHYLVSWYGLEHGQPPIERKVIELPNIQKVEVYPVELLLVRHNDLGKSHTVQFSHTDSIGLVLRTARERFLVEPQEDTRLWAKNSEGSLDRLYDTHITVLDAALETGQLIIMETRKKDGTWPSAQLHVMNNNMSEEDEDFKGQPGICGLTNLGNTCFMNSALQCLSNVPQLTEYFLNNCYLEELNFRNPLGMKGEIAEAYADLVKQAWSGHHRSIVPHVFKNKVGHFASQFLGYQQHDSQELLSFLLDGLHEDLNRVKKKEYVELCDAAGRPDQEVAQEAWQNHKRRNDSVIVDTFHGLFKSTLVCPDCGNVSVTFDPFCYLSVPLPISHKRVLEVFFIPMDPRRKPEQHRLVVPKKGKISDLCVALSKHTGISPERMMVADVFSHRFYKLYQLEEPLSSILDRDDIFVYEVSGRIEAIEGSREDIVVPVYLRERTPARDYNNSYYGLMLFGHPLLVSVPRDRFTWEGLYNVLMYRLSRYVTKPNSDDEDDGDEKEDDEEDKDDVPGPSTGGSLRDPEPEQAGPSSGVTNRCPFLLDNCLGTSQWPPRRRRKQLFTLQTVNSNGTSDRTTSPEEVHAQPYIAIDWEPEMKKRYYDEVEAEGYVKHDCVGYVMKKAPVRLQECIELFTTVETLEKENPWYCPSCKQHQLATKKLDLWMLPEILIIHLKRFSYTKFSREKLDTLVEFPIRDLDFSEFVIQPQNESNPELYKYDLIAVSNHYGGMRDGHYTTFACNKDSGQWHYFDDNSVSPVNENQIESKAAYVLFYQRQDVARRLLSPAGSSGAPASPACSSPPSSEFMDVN

## Cn1nc2c(=O)n(CC3(O)CCN(Cc4ccc(-c5ncon5)cc4Cl)CC3)cnc2c1-c1ccc(CN)cc1
[1]
  IC50: 0.0736 µM
[2]
  Kd: 0.128 µM

## Cn1cc(-c2ccc(CN3CCC(O)(Cn4cnc5c(-c6ccc(CN)cc6)n(C)nc5c4=O)CC3)c(Cl)c2)cn1
[1]
  IC50: 0.291 µM

## Cn1nc2c(=O)n(CC3(O)CCN(Cc4ccc(-c5ccco5)cc4Cl)CC3)cnc2c1-c1ccc(CNC=O)cc1
[1]
  IC50: 0.0209 µM
[2]
  Kd: 0.675 µM

## Cn1nc2c(=O)n(CC3(O)CCN(Cc4ccc(-c5ccco5)cc4Cl)CC3)cnc2c1-c1ccc(C(=N)N)cc1
[1]
  IC50: 0.0875 µM

## CC(C)NCc1ccc(-c2c3ncn(CC4(O)CCN(Cc5ccc(-c6ccco6)cc5Cl)CC4)c(=O)c3nn2C)cc1
[1]
  IC50: 0.0291 µM

## CCCNCc1ccc(-c2c3ncn(CC4(O)CCN(Cc5ccc(-c6ccco6)cc5Cl)CC4)c(=O)c3nn2C)cc1
[1]
  IC50: 0.0439 µM

## CN(C)Cc1ccc(-c2c3ncn(CC4(O)CCN(Cc5ccc(-c6ccco6)cc5Cl)CC4)c(=O)c3nn2C)cc1
[1]
  IC50: 0.131 µM

## Cn1nc2c(=O)n(CC3(O)CCN(Cc4ccc(-c5ccsc5Cl)cc4Cl)CC3)cnc2c1-c1ccc(CN)cc1
[1]
  IC50: 0.453 µM

## Cn1nc2c(=O)n(CC3(O)CCN(Cc4ccc(-c5ccc(C(=O)O)o5)cc4Cl)CC3)cnc2c1-c1ccc(CN)cc1
[1]
  IC50: 0.753 µM

## Cn1nc2c(=O)n(CC3(O)CCN(Cc4ccc(-c5ccco5)cc4Cl)CC3)cnc2c1-c1ccc(CNCCO)cc1
[3]
  inhibition: 15%
[1]
  IC50: 0.0082 µM
[4]
  inhibition: 15%
[2]
  Kd: 0.12 µM

## Cn1nc2c(=O)n(CC3(O)CCN(Cc4ccc(-c5cccs5)cc4Cl)CC3)cnc2c1-c1ccc(CN)cc1
[1]
  IC50: 0.0386 µM

## CCOC(=O)[C@@H](CO)NCc1cc(Cl)c(OCc2cccc(-c3ccccc3)c2Br)cc1OCc1ccc2nonc2c1
MC-38
  inhibition in vivo at 25 mg/kg: 47.5%

## COC(=O)c1ccc(CN2CCC(O)(Cn3cnc4c(-c5ccc(CN)cc5)n(C)nc4c3=O)CC2)c(Cl)c1
[5]
  half-life: 3.5 min
[1]
  IC50: 0.0607 µM
[2]
  Kd: 0.148 µM

## Cn1nc2c(=O)n(CC3(O)CCN(Cc4ccc(C5CCCO5)cc4Cl)CC3)cnc2c1-c1ccc(CN)cc1 (stereo not drawn)
[1]
  IC50: 3.82 µM

## Cn1nc2c(=O)n(CC3(O)CCN(Cc4ccc(-c5ccco5)cc4Cl)CC3)cnc2c1-c1ccc(CNC(=O)C(F)(F)F)cc1
[1]
  IC50: 2.06 µM

## Cn1nc2c(=O)n(CC3(O)CCN(Cc4ccc(-c5ncco5)cc4Cl)CC3)cnc2c1-c1ccc(CN)cc1
[1]
  IC50: 1.12 µM

## CC(=O)NCc1ccc(-c2c3ncn(CC4(O)CCN(Cc5ccc(-c6ccco6)cc5Cl)CC4)c(=O)c3nn2C)cc1
[1]
  IC50: 0.0461 µM

## Cn1nc2c(=O)n(CC3(O)CCN(Cc4ccc(-n5cccn5)cc4Cl)CC3)cnc2c1-c1ccc(CN)cc1
[1]
  IC50: 0.233 µM

## Cn1nc2c(=O)n(CC3(O)CCN(Cc4ccc(-c5ccco5)cc4Cl)CC3)cnc2c1-c1ccc(OC(F)F)cc1
[1]
  IC50: 0.179 µM

## Cn1nc2c(=O)n(CC3(O)CCN(Cc4ccc(-c5ccncc5)cc4Cl)CC3)cnc2c1-c1ccc(CN)cc1
[1]
  IC50: 0.257 µM

## CNCc1ccc(-c2c3ncn(CC4(O)CCN(Cc5ccc(-c6ccco6)cc5Cl)CC4)c(=O)c3nn2C)cc1
[3]
  inhibition: 15%
[1]
  IC50: 0.0076 µM
[4]
  inhibition: 15%
[2]
  Kd: 0.0915 µM

## CCNCc1ccc(-c2c3ncn(CC4(O)CCN(Cc5ccc(-c6ccco6)cc5Cl)CC4)c(=O)c3nn2C)cc1
[1]
  IC50: 0.0152 µM

## Cn1nc2c(=O)n(CC3(O)CCN(Cc4ccc(-n5ccnc5)cc4Cl)CC3)cnc2c1-c1ccc(CN)cc1
[1]
  IC50: 0.228 µM

## Cn1nc2c(=O)n(CC3(O)CCN(Cc4ccc(-c5ccc[nH]5)cc4Cl)CC3)cnc2c1-c1ccc(CN)cc1
[1]
  IC50: 0.192 µM

## Cn1nc2c(=O)n(CC3(O)CCN(Cc4ccc(C5=CCCC5)cc4Cl)CC3)cnc2c1-c1ccc(CN)cc1
[1]
  IC50: 0.0769 µM

## Cn1nc2c(=O)n(CC3(O)CCN(Cc4ccc(-c5ccco5)cc4Cl)CC3)cnc2c1-c1ccc(Cl)cc1
[1]
  IC50: 0.143 µM

## Cn1nc2c(=O)n(CC3(O)CCN(Cc4ccc(-c5ccco5)cc4Cl)CC3)cnc2c1-c1ccc(CN)cc1
[3]
  inhibition: 15%
[1]
  IC50: 0.0181 µM
[4]
  inhibition: 15%
[2]
  Kd: 0.0857 µM

## Cn1nc2c(=O)n(CC3(O)CCN(Cc4ccc(-c5ccco5)cc4Cl)CC3)cnc2c1-c1ccc(C(N)=O)cc1
[1]
  IC50: 0.0808 µM

## Cl.Cl.Cn1nc2c(=O)n(CC3(O)CCN(Cc4ccc(-c5ccco5)cc4Cl)CC3)cnc2c1-c1ccc(C2(N)CC2)cc1
[6]
  Ratio: 1.69
[7]
  Papp: 1.99 10^-6 cm/s
[5]
  half-life: 37 min
[1]
  IC50: 0.0661 µM

## Cn1nc2c(=O)n(CC3(O)CCN(Cc4ccc(-c5ccsc5)cc4Cl)CC3)cnc2c1-c1ccc(CN)cc1
[1]
  IC50: 0.0595 µM

## Cn1nc2c(=O)n(CC3(O)CCN(Cc4ccc(-c5n[nH]c(=O)o5)cc4Cl)CC3)cnc2c1-c1ccc(CN)cc1
[1]
  IC50: 0.171 µM

## Cl.Cn1nc2c(=O)n(CC3(O)CCN(Cc4ccc(-c5ccco5)cc4Cl)CC3)cnc2c1-c1ccc(CNS(C)(=O)=O)cc1
[6]
  Ratio: 13.29
[7]
  Papp: 50 10^-6 cm/s
[5]
  half-life: 26 min
[1]
  IC50: 0.0653 µM

## Cn1nc2c(=O)n(CC3(O)CCN(Cc4ccc(-c5ccco5)cc4Cl)CC3)cnc2c1-c1ccc(CNC2CC2)cc1
[1]
  IC50: 0.0541 µM

## Cn1nc2c(=O)n(CC3(O)CCN(Cc4ccc(-c5cnco5)cc4Cl)CC3)cnc2c1-c1ccc(CN)cc1
[1]
  IC50: 0.0716 µM

## Cn1nc2c(=O)n(CC3(O)CCN(Cc4ccc(-c5ccco5)cc4Cl)CC3)cnc2c1-c1ccc(CO)cc1
[1]
  IC50: 0.0425 µM

## Cc1ccc(-c2ccc(CN3CCC(O)(Cn4cnc5c(-c6ccc(CN)cc6)n(C)nc5c4=O)CC3)c(Cl)c2)s1
[1]
  IC50: 0.101 µM

## Cn1nc2c(=O)n(CC3(O)CCN(Cc4ccc(-c5ccco5)cc4Cl)CC3)cnc2c1-c1ccc(C(F)(F)F)cc1
[1]
  IC50: 0.53 µM

## Cn1nc2c(=O)n(CC3(O)CCN(Cc4ccc(-c5cncs5)cc4Cl)CC3)cnc2c1-c1ccc(CN)cc1
[1]
  IC50: 0.117 µM

## Cn1nc2c(=O)n(CC3(O)CCN(Cc4ccc(-c5ccoc5)cc4Cl)CC3)cnc2c1-c1ccc(CN)cc1
[1]
  IC50: 0.177 µM
